# Test results from patent US7618968B2, “Aryl triazines as LPAAT-β inhibitors and uses thereof” (Cell Therapeutics, Inc., priority 2001, dated 2009).
# Biological target: T1, LPAAT-β (Homo sapiens, UniProt O15120)
# T1 construct: the full-length human LPAAT-β cDNA was amplified by PCR; poly-histidine tag (from pFastBac HTc vector) (N); made in house; host or cells: Sf9 insect cells (baculovirus); membrane fraction used
# T1 sequence (O15120 24-278): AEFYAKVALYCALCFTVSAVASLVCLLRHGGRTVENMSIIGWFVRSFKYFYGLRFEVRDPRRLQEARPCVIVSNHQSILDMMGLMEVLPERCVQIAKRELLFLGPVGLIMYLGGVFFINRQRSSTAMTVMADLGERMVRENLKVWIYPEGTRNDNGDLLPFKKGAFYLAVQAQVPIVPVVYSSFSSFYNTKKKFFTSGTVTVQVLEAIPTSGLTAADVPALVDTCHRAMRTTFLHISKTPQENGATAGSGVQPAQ
# Experiment: LPAAT-β cell-free assay (colorimetric primary screen, radiometric/fluorescent TLC secondary assay)
# Assay type: biochemical
# Details: Sf9 cell membrane overexpressing LPAAT-β
# Excerpt: A. Production of Recombinant LPAAT-β for Assays
# For the construction of Baculovirus expression vectors, the full-length human LPAAT-β cDNA was amplified by PCR from the DNA template pCE9.LPAAT-β (West et al., DNA Cell Biol. 16:691-701 (1997)) using the primers 5′-[…] […] […] […]-3′ (olpb1F; SEQ ID NO:1) and 5′-[…] […] […]-3′ (olpb1R; SEQ ID NO:2). The ˜870 bp fragment generated was reamplified by PCR using the primers 5′[…] […] […] […] ATC-3′ (olpb2F; SEQ ID NO:3) and 5′-[…] […] […]-3′ (olpb1R; SEQ ID NO:2). The ˜890 bp fragment generated was then cleaved with Sal I and Xba I for insertion into pFastBac™ HTc vector (Life Technologies, Gaithersberg, Md.) between the Sal I and Xba I sites for the generation of the plasmid pFB.LPAAT-β. This plasmid was then transformed into E. coli DH10Bac™ (Life Technologies, Gaithersberg, Md.) for the generation of recombinant Bacmid DNA for transfection in HighFive (Invitrogen, San Diego, Calif.) or SF9 insect cells for the production of recombinant Baculovirus stocks using the protocol described in the Bac-to-Bac® Baculovirus Expression System (Life Technologies, Gaithersberg, Md.), a eukaryotic expression system for generating recombinant baculovirus through site-specific transposition in E. coli. Viral stocks harvested from the transfected cells can then be used to infect fresh insect cells for the subsequence expression of LPAAT-β fusion protein with a poly-histidine tag and a myc-epitope near its N-terminus. The membrane fraction from these Sf9 cells would be the source of LPAAT enzyme.
# B. Preparation of Cell Membranes from Sf9 Cells
# For the preparation of membranes from Sf9 Cells, all steps are performed on ice or at 4° C. Sf9 cell pellets (˜10^8 cells) were thawed and resuspended in 1-2 ml of buffer A (20 mM Hepes, pH 7.5, 1 mM DTT, 1 mM EDTA, 20% w/v glycerol, 1 mM Benzamidine, 1 μg/ml soybean trypsin inhibitor (SBTI), 1 μg/ml pepstatin A) w/o DTT but with 1 mM Pefabloc. The cells were lysed by sonication using a Branson Sonifier at output=2, duty cycle=2, 10 pulses each at 10s. with the tip of small sonicator probe submerged but not touching the walls. DTT was then added to 1 mM from a 1 M stock. The samples were centrifuged at 1500 rpm for 5 min. The low speed supernatant was saved and centrifuged (TLA 100.3 rotor, polycarbonate tubes, 2 ml/tube or 1.5 ml/tube minimum) at 100000×g for 1 hr. The high speed pellet was resuspend in Buffer A with a probe sonicator (10 pulses @ output #2 and duty cycle 20%) as a source of LPAAT enzyme.
# C. Assay of LPAAT-β Activity
# LPAAT-β catalyzes the transfer of an acyl group from a donor such as acyl-CoA to LPA. The transfer of the acyl group from acyl-CoA to LPA leads to the release of free CoA, which can be reacted with the thiol reagent, 5,5′-dithiobis(2-nitrobenzoic acid) (DTNB). The reaction between DTNB and the free sulfhydryl group from CoA generates a yellow-colored product, 3-carboxylato-4-nitrothiophenolate (CNP), that absorbs at 413 nm. LPAAT-β derived from Sf9 cell membrane overexpressing LPAAT-β were resuspended in HEPES saline buffer (20 mM HEPES pH 7.5, 150 mM NaCl), 1 mg/ml BSA and 72 μl aliquots were distributed into 96-well microtiter plates. 8 μl of compound of interest at 200 μM dissolved in 100% DMSO was added into each well. 20 μl of 1 mM 18:1-CoA and 1 mM sn-1-18:1 lysoPA was then added to each well to initiate the reaction and allowed to run at room temperature for 25 min. 100 μl of 1 mM DTNB in 100% ethanol was then added to each well to quench the reaction and for color development. The absorbance at 405 nm, measured using a spectrophotometer plate reader, is proportional to the activity of LPAAT-β in the sample. This colorimetric assay was used for the high throughput screening of LPAAT inhibitors.
row,IC50 [nM],SMILES
1,400,"Cc1ccc(Nc2nc(N)nc(-c3cc(Cl)ccc3C)n2)cc1C [Example 59, 6-(5-Chloro-2-methyl-phenyl)-N-(3,4-dimethyl-phenyl)-[1,3,5]triazine-2,4-diamine]"
2,480,"Cc1ccc(Cl)cc1-c1nc(N)nc(Nc2ccc(COC(=O)CN)cc2)n1 [Example 71, Amino-acetic acid 4-[4-amino-6-(5-chloro-2-methyl-phenyl)-[1,3,5]triazin-2ylamino]-benzyl ester]"
3,830,Cc1ccc(Cl)cc1-c1nc(N)nc(Nc2ccc(COC(=O)CCC(=O)O)cc2)n1 [Example 70]
4,140,"Cc1ccc(Cl)cc1-c1nc(N)nc(Nc2ccc(CCO)cc2)n1 [Example 57, 2-{4-[4-Amino-6-(5-chloro-2-methyl-phenyl)-[1,3,5]triazin-2-ylamino]-phenyl}-ethanol]"
5,1000,"CCOc1ccc(Cl)cc1-c1nc(N)nc(Nc2ccc(Cl)c(C(=O)NC)c2)n1 [Example 62, 5-[4-Amino-6-(5-chloro-2-ethoxyphenyl)-[1,3,5]triazin-2-ylamino]-2-chloro-N-methylbenzamide]"
6,1800,"Cc1ccc(Cl)cc1-c1nc(N)nc(Nc2ccc(CN(C)C)cc2)n1 [Example 58, 6-(5-Chloro-2-methyl-phenyl)-N-(4-dimethylaminomethyl-phenyl)-[1,3,5]triazine-2,4-diamine]"
7,3100,"Cc1ccc(Cl)cc1-c1nc(N)nc(Nc2ccc(COC(=O)CC[C@H](N)C(=O)O)cc2)n1 [Example 63, (S)-2-Amino-pentanedioic acid 5-{4-[4-amino-6-(5-chloro-2-methyl-phenyl)-[1,3,5]triazin-2-ylamino]-benzyl}ester]"
8,100,"N#Cc1ccc(Nc2nc(N)nc(-c3cc(Cl)ccc3Cl)n2)cc1 [Example 89, 4-[4-Amino-6-(2,5-dichlorophenyl)-[1,3,5]triazin-2-ylamino]-benzonitrile]"
9,680,"CNc1nc(Nc2ccc(CO)cc2)nc(-c2cc(Cl)ccc2C)n1 [Example 74, {4-[4-(5-Chloro-2-methyl-phenyl)-6-methylamino-[1,3,5]-triazin-2-ylamino]-phenyl}-methanol]"
10,110,"Cc1ccc(Cl)cc1-c1nc(N)nc(Nc2ccc(C=O)cc2)n1 [Example 87, 4-[4-Amino-6-(5-chloro-2-methyl-phenyl)-[1,3,5]triazin-2-ylamino]-benzaldehyde]"
11,750,"CCc1cccc(Nc2nc(N)nc(-c3cc(Cl)ccc3C)n2)c1 [Example 66, 6-(5-Chloro-2-methyl-phenyl)-N-(3-ethyl-phenyl)-[1,3,5]triazine-2,4-diamine]"

# Continued, molecule first:
row,SMILES,IC50 [nM]
1,"Cc1ccc(Cl)cc1-c1nc(Cl)nc(Nc2ccc([N+](=O)[O-])cc2)n1 [Example 30, [6-(5-Chloro-2-methyl-phenyl)-2-chloro-3-yl-[1,3,5]-triazin-4-yl]-(4-nitro-phenyl)-amine]",10
2,"CCOc1ccc(Cl)cc1-c1nc(N)nc(Nc2ccc3cn[nH]c3c2)n1 [Example 51, 6-(5-Chloro-2-ethoxy-phenyl)-N-(1H-indazol-6-yl)-[1,3,5]triazine-2,4-diamine]",600
3,"CCOc1ccc(Cl)cc1-c1nc(N)nc(Nc2ccc([N+](=O)[O-])cc2)n1 [Example 54, 6-(5-Chloro-2-ethoxyphenyl)-N-(4-nitrophenyl)-[1,3,5]triazine-2,4-diamine]",120
4,"Cc1ccc(C)c(-c2nc(N)nc(Nc3ccc(Cl)cc3)n2)c1 [Example 14, N-(4-chlorophenyl)-6-(2,5-dimethylphenyl)-[1,3,5]triazine-2,4-diamine]",250
5,"COc1ccc(Cl)cc1-c1nc(N)nc(Nc2ccc(Br)cc2)n1 [Example 10, N-2-(4-Bromophenyl)-6-(5-chloro-2-methoxyphenyl)-[1,3,5]triazine-2,4-diamine]",76
6,"CCOc1ccc(Cl)cc1-c1nc(N)nc(Nc2ccc(CO)cc2)n1 [Example 53, {4-[4-Amino-6-(5-chloro-2-ethoxy-phenyl) [1,3,5]triazin-2-ylamino]-phenyl}-methanol]",1800
7,"Nc1nc(Nc2ccc(CO)cc2)nc(-c2cc(Cl)ccc2Cl)n1 [Example 46, {4-[4-Amino-6-(2,5-dichloro-phenyl)-[1,3,5]triazin-2-ylamino]-phenyl}-methanol]",440
8,"Cc1ccc(Cl)cc1-c1nc(N)nc(Nc2ccc(Cl)cc2)n1 [Example 9, 6-(5-Chloro-2-methylphenyl)-N-(4-Chlorophenyl)-[1,3,5]triazine-2,4-diamine]",55
9,"CNc1cc(Nc2nc(N)nc(-c3cc(Cl)ccc3C)n2)ccc1Cl [Example 34, N-(4-Chloro-3-methylamino-phenyl)-6-(5-chloro-2-methyl-phenyl)-[1,3,5]triazine-2,4-diamine]",160
10,"COc1ccc(Cl)cc1-c1nc(N)nc(Nc2ccc3c(c2)OCO3)n1 [Example 5, N-Benzo[1,3]dioxol-5-yl-6-(5-chloro-2-methoxyphenyl)-[1,3,5]triazine-2,4-diamine]",280
11,"Cc1ccc(Cl)cc1-c1ncnc(Nc2ccc(Cl)cc2)n1 [Example 33, [6-(5-Chloro-2-methyl-phenyl)-[1,3,5]triazin-4-yl]-(4-chloro-phenyl)-amine]",240
12,"CSc1nc(Nc2ccc(Br)cc2)nc(-c2cc(Cl)ccc2C)n1 [Example 29, (4-Bromo-phenyl)-[4-(5-chloro-2-methyl-phenyl)-6-methylsulfanyl-[1,3,5]triazin-2-yl]-amine]",1100
13,"CCOc1ccc(Cl)cc1-c1nc(N)nc(Nc2ccc3c(c2)OCO3)n1 [Example 55, N-Benzo[1.3]dioxol-5-yl-6-(5-chloro-2-ethoxy-phenyl)[1,3,5]triazine-2,4-diamine]",800
14,"Cc1ccc(Nc2nc(N)nc(-c3cc(Cl)ccc3C)n2)cc1 [Example 39, 6-(5-Chloro-2-methyl-phenyl)-N-p-tolyl-[1,3,5]triazine-2,4-diamine]",320
15,"CC(C)Oc1ccc(Cl)cc1-c1nc(N)nc(Nc2ccc(Cl)cc2)n1 [Example 52, 6-(5-Chloro-2-isopropoxy-phenyl)-N-(4-chloro-phenyl)-[1,3,5]triazine-2,4-diamine]",620
16,Cc1ccc(Cl)cc1-c1nc(C#N)nc(Nc2ccc(Br)cc2)n1 [Example 28],420
17,CCc1nc(Nc2ccc(Br)cc2)nc(-c2cc(Cl)ccc2C)n1 [Example 24],700
18,"COc1ccc(Cl)cc1-c1nc(N)nc(Nc2ccc(Cl)c(Cl)c2)n1 [Example 8, 6-(5-Chloro-2-methoxyphenyl)-N-(3,4-dichlorophenyl)-[1,3,5]triazine-2,4-diamine]",140
19,"COc1ccc(Cl)cc1-c1nc(N)nc(Nc2ccc(Cl)cc2)n1 [Example 1, 6-(5-Chloro-2-methoxyphenyl)-N-(4-chlorophenyl)-[1,3,5]triazine-2,4-diamine]",57
20,"COc1ccc(Cl)cc1-c1nc(N)nc(Nc2ccc(F)cc2)n1 [Example 15, 6-(5-Chloro-2-methoxyphenyl)-N-(4-fluorophenyl)-[1,3,5]triazine-2,4-diamine]",430
